Measurements published in patent US20050085531A1, “Thiophene-based compounds exhibiting ATP-utilizing enzyme inhibitory activity, and compositions, and uses thereof” (priority 2003, published 2005).

Target: AKT1 (Homo sapiens, UniProt P31749)
Test: HTS off-chip mobility-shift assay, typical screen parameters for AKT1
Type: biochemical
Details: read-out: inhibition (control inhibitor)
Excerpt: The following procedures describe the reagent and plate preparation for a HTS of an ATP-utilizing enzyme, such as a protein kinase, run in an off-chip mobility-shift assay format. The following provides an HTS protocol for running a protein kinase HTS screen on a Caliper HTS 250 microfluidics system. The following parameters are dependent on the protein kinase used and can be determined by one skilled in the art as part of a typical assay development process. For example, the peptide substrate used can be identified from the current literature, by screening a peptide library of potential protein kinase substrates, or by other applicable means accepted in the field.
The following table provides typical screen assay parameters appropriate for a Caliper HTS 250 microfluidics system used to assay AKT1. Parameters used to assay other protein kinases can be determined by one skilled in the art. […]
Assays to determine the kinase inhibitory activity of compounds of the present disclosure were performed using a Caliper HTS 250 microfluidics device, Greiner U-bottom assay plates, a Multidrop for transfer of reagents, and Biomek FX (AMNCBM03) software. […] The inhibition of the ATP-utilizing enzyme, such as a particular protein kinase, was determined by measuring the ratio of the peptide substrate to phosphorylated product for each well of the assay plate using the Caliper HTS 250 system.

Sequence of AKT1 (P31749 whole entry): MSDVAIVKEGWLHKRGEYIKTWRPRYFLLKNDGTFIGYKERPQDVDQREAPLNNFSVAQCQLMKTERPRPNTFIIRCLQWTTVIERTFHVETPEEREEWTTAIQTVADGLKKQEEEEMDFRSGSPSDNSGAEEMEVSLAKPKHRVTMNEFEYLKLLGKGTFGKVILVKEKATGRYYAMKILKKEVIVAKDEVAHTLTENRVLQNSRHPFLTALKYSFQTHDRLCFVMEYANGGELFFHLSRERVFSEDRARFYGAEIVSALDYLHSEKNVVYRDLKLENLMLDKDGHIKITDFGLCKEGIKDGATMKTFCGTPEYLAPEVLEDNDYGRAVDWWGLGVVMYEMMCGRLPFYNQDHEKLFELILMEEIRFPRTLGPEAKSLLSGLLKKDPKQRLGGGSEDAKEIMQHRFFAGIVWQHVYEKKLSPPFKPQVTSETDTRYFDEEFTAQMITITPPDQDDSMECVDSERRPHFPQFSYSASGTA

Structure (SMILES) | inhibition at 20000 µM (inhibitor concentration 20 mM, AKT1 screen) | inhibition at 0.138 µM
O=C(O)CN(CCN(CC(=O)O)CC(=O)O)CC(=O)O [EDTA, ethylenediaminetetraacetic acid] | 100% | 
CN[C@@H]1C[C@H]2O[C@@](C)([C@@H]1OC)n1c3ccccc3c3c4c(c5c6ccccc6n2c5c31)C(=O)NC4 [Staurosporine] |  | 70%
